Data as given in patent publication US8426458B2, “Hepatitis C Virus inhibitors” (priority 2009, dated 2013).

Test system: HCV 1b genotype replicon
Assay: HCV replicon assay (qRT-PCR or luciferase), genotype 1b
Assay type: cell-based
Conditions: Hepatitis C virus, read-out: Genotype-1b replicon EC50 Range
Description: HCV replicon cell lines (kindly provided by R. Bartenschlager) isolated from colonies as described by Lohman et. al. (Lohman et al. (1999) Science 285: 110-113, expressly incorporated by reference in its entirety) and used for all experiments. The HCV replicon has the nucleic acid sequence set forth in EMBL Accession No.: AJ242651, the coding sequence of which is from nucleotides 1801 to 8406.
The coding sequence of the published HCV replicon was synthesized and subsequently assembled in a modified plasmid pBR322 (Promega, Madison, Wis.) using standard molecular biology techniques. […]
EC50 values of single agent compounds and combinations were determined by HCV RNA detection using quantitative RT-PCR, according to the manufacturer's instructions, with a TaqMan® One-Step RT-PCR Master Mix Reagents Kit (Cat# AB 4309169, Applied Biosystems) on an ABI Model 7500 thermocycler. The TaqMan primers used for detecting and quantifying HCV RNA were obtained from Integrated DNA Technologies. HCV RNA was normalized to GAPDH RNA levels in drug-treated cells, which is detected and quantified using the Human GAPDH Endogenous Control Mix (Applied Biosystems, AB 4310884E). […] Chemical agent cytotoxicity is evaluated using an MTS assay according to the manufacturer's directions (Promega). […]

SMILES: CN(C)[C@H](C(=O)N1CCC[C@H]1c1nc(C(=O)N[C@H]2CC[C@H](NC(=O)c3c[nH]c([C@@H]4CCCN4C(=O)[C@@H](c4ccccc4)N(C)C)n3)CC2)c[nH]1)c1ccccc1 [Example 2]
- EC50: > 10 nM
